Columns and labels:
[1] = test system: HCT-116 (human colorectal cancer cells); assay: MTT cytotoxicity assay, HCT-116; format: cell-based; conditions: for cell viability: HCT-116, 10 μM and 25 μM; for IC50: Homo sapiens, HCT-116, 24 h
Wistar rats [2] = assay: Lipid peroxidation assay; format: in vivo, rat; conditions: 1000 mg/kg, compared to control
Wistar rats [3] = assay: Acute oral toxicity study; conditions: for change in body weight / food consumed by animals (weight) / change in organ weight, Kidney / change in organ weight, Liver / change in organ weight, Spleen: mean ± S.E.M, n = 5; for body weight course: 7th and 14th day; for toxicity signs / tremors, change in eye and skin color / Mortality: oral; for Mortality: 2000 mg/kg
HCT-116 cells [4] = assay: DNA fragmentation, Hoechst staining, HCT-116; format: cell-based, human; conditions: HCT-116, 50 µM, 24 h
Wistar rats [5] = assay: Serum biochemistry after acute oral administration; conditions: n = 3; for Globulin: normal range 1.5–2.5, mean ± S.E.M; for A/G ratio: normal range 1.58–2.67, mean ± S.E.M; for Albumin: normal range 3.4–4.8, mean ± S.E.M; for Total protein: normal range 5.2–7.1, mean ± S.E.M; for SGPT (ALT): normal range 18–45, mean ± S.E.M; for ALP: normal range 62–230, mean ± S.E.M; for SGOT (AST): normal range 74–183, mean ± S.E.M; for Triglycerides: normal range 20–114, mean ± S.E.M
CT-26 cells [6] = assay: DNA fragmentation, Hoechst staining, CT-26; format: cell-based, murine; conditions: CT-26, 50 µM, 24 h
HCT-116 cells [7] = assay: Cell migration; format: cell-based, human; conditions: 24 h, control = 100 %
Wistar rats [8] = assay: Superoxide dismutase activity in organ homogenates; format: in vivo, rat
red blood cells (RBCs) = assay: Hemolysis assay; format: cell-based; conditions: rat blood, 10 μM, 25 μM, 50 μM, and 100 μM, compared to positive control
Wistar rats [9] = assay: Histopathological examination of liver, kidney and spleen; format: in vivo, rat; conditions: for Liver sections, histopathology / Spleen sections, histopathology: H&E
[10] = test system: CT-26 (murine colorectal cancer cells); assay: MTT cytotoxicity assay, CT-26; format: cell-based; conditions: Mus musculus, CT26, 24 h
CT-26 cells [11] = assay: Cell migration; format: cell-based, murine; conditions: 24 h, control = 100 %
[12] = 14th day, 1000 mg/kg, compared to control
[13] = 1000 mg/kg, compared with IG-01–007 and IG-01–008 at 300 mg/kg
[14] = 1000 mg/kg, compared with control and 1 % DMSO

SMILES: CC(C)(C)CC(C)(C)Nc1c(-c2ccc(-c3ccccc3)cc2)nc2cnccn12 [IG-01–008, 2-([1,1’-biphenyl]-4-yl)-N-(2,4,4-trimethylpentan-2-yl)imidazo[1,2-a]pyrazin-3-amine]
- cell viability [1]: no significant reduction in cell viability
- cytotoxicity ([1]; HCT-116, 50 μM and 100 μM): higher cytotoxicity compared to IG-01–007
- IC50 [1]: 30.9 ± 10.6 µM
- MDA levels, liver (Wistar rats [2]): significantly higher
- change in body weight (Wistar rats [3]; 0 day, 300 mg/kg): 242 ± 5.1478 gm
- food consumed by animals (weight) (Wistar rats [3]; 0 day, 300 mg/kg): 92.2 ± 0.374 gm
- change in body weight (Wistar rats [3]; 0 day, 1000 mg/kg): 249 ± 8.124 gm
- food consumed by animals (weight) (Wistar rats [3]; 0 day, 1000 mg/kg): 92.4 ± 1.166 gm
- change in organ weight, Kidney (Wistar rats [3]; 300 mg/kg): 2.058 ± 0.123 gm
- change in organ weight, Liver (Wistar rats [3]; 300 mg/kg): 6.21 ± 0.15 gm
- change in organ weight, Spleen (Wistar rats [3]; 300 mg/kg): 0.83 ± 0.0763 gm
- change in organ weight, Kidney (Wistar rats [3]; 1000 mg/kg): 1.954 ± 0.110 gm
- change in organ weight, Liver (Wistar rats [3]; 1000 mg/kg): 6.74 ± 0.332 gm
- change in organ weight, Spleen (Wistar rats [3]; 1000 mg/kg): 0.747 ± 0.1135 gm
- body weight course (Wistar rats [3]; 1000 mg/kg): gradual decrease in body weight
- food consumption (Wistar rats [3]; 7th day, 300 mg/kg and 1000 mg/kg, compared to control): significant decrease in food consumption
- change in body weight (Wistar rats [3]; 7th day, 300 mg/kg): 254 ± 6.595 gm
- food consumed by animals (weight) (Wistar rats [3]; 7th day, 300 mg/kg): 86.2 ± 0.969 gm
- change in body weight (Wistar rats [3]; 7th day, 1000 mg/kg): 236 ± 8.124 gm
- food consumed by animals (weight) (Wistar rats [3]; 7th day, 1000 mg/kg): 83.2 ± 0.86 gm
- food intake (Wistar rats [3]; 14th day, 300 mg/kg and 1000 mg/kg, compared to 1 % DMSO): significant reduction in food intake
- food intake (Wistar rats [3]; 14th day, 300 mg/kg, compared to control): significant decrease in food intake
- change in body weight (Wistar rats [3]; 14th day, 300 mg/kg): 257 ± 6.04 gm
- food consumed by animals (weight) (Wistar rats [3]; 14th day, 300 mg/kg): 81.2 ± 0.916 gm
- food intake (Wistar rats [3]; [12]): significant decrease in food intake
- change in body weight (Wistar rats [3]; 14th day, 1000 mg/kg): 225 ± 8.366 gm
- food consumed by animals (weight) (Wistar rats [3]; 14th day, 1000 mg/kg): 76 ± 1.702 gm
- body weight (Wistar rats [3]; day 14th, 1000 mg/kg, compared to control): significantly lowered
- toxicity signs (Wistar rats [3]; 1000 mg/kg): toxicity signs were seen
- tremors, change in eye and skin color (Wistar rats [3]; 1000 mg/kg): tremors, change in eye and skin color was observed
- Mortality (Wistar rats [3]): Mortality was observed
- DNA fragmentation (HCT-116 cells [4]): DNA fragmentation
- Globulin (Wistar rats [5]; 300 mg/kg): 4.30 ± 0.529 g/dL
- A/G ratio (Wistar rats [5]; 300 mg/kg): 0.736 ± 0.0523
- Albumin (Wistar rats [5]; 300 mg/kg): 3.166 ± 0.2905 g/dL
- Total protein (Wistar rats [5]; 300 mg/kg): 7.266 ± 0.523 g/dL
- SGPT (ALT) (Wistar rats [5]; 300 mg/kg): 60.33 ± 3.756 U/L
- ALP (Wistar rats [5]; 300 mg/kg): 391.33 ± 9.261 U/L
- SGOT (AST) (Wistar rats [5]; 300 mg/kg): 255 ± 5.291 U/L
- Globulin (Wistar rats [5]; 1000 mg/kg): 4.35 ± 0.144 g/dL
- A/G ratio (Wistar rats [5]; 1000 mg/kg): 0.923 ± 0.0648
- Albumin (Wistar rats [5]; 1000 mg/kg): 3.67 ± 0.2055 g/dL
- Total protein (Wistar rats [5]; 1000 mg/kg): 7.60 ± 0.3183 g/dL
- SGPT (ALT) (Wistar rats [5]; 1000 mg/kg): 79.0 ± 1.732 U/L
- Triglycerides (Wistar rats [5]; 1000 mg/kg): 115.33 ± 5.487 mg%
- ALP (Wistar rats [5]; 1000 mg/kg): 501.66 ± 13.64 U/L
- SGOT (AST) (Wistar rats [5]; 1000 mg/kg): 302.33 ± 4.096 U/L
- DNA fragmentation (CT-26 cells [6]): DNA fragmentation
- % migration of cell (HCT-116 cells [7]; HCT-116, 25 μM): 36.33%
- % migration of cell (HCT-116 cells [7]; HCT-116, 50 μM): 20.76%
- SOD level, spleen (Wistar rats [8]; 300 mg/kg, compared with control and 1 % DMSO): significant decrease seen in SOD level
- SOD level, spleen (Wistar rats [8]; [13]): significant reduction of SOD level
- SOD levels, kidney (Wistar rats [8]; 1000 mg/kg, compared with IG-01–007 at 300 mg/kg): SOD levels were significantly decreased
- SOD level, spleen (Wistar rats [8]; [14]): significant decrease seen in SOD level
- SOD levels, kidney (Wistar rats [8]; 1000 mg/kg, in comparison with 1 % DMSO): SOD levels significantly decreased
- hemolytic activity (red blood cells (RBCs)): did not show any hemolytic activity
- Liver sections, histopathology (Wistar rats [9]; 300 mg/kg): mild steatosis and presence of micro and macro vesicles
- Spleen sections, histopathology (Wistar rats [9]; 300 mg/kg): ill-defined spleen section
- Liver sections, histopathology (Wistar rats [9]; 1000 mg/kg): moderate to severe fatty liver change with presence of sinusoidal spaces indicated by arrow and multi necrotic foci filled with mild hemorrhage
- Spleen sections, histopathology (Wistar rats [9]; 1000 mg/kg): disrupt white pulp
- toxicity in liver tissues (abstract) (Wistar rats [9]; doses of ≥ 1000 mg/kg): hepatic damage and cholestasis
- IC50 [10]: 48.1 ± 22.6 µM
- migration percentages (CT-26 cells [11]; CT-26, 25 μM): 35.65%
- migration percentages (CT-26 cells [11]; CT-26, 50 μM): 39.17%

SMILES: CC(C)(C)Nc1c(-c2ccc(-c3ccccc3)cc2)nc2ccccn12 [IG-01–007, 2-([1,1’-biphenyl]-4-yl)-N-(tert-butyl)imidazo[1,2-a]pyridine-3-amine]
- cell viability [1]: no significant reduction in cell viability
- IC50 [1]: 30.1 ± 1.58 µM
- MDA levels, liver (Wistar rats [2]): significantly higher
- change in body weight (Wistar rats [3]; 0 day, 300 mg/kg): 233 ± 2 gm
- food consumed by animals (weight) (Wistar rats [3]; 0 day, 300 mg/kg): 93.8 ± 1.1575 gm
- change in body weight (Wistar rats [3]; 0 day, 1000 mg/kg): 244 ± 15.6844 gm
- food consumed by animals (weight) (Wistar rats [3]; 0 day, 1000 mg/kg): 94.8 ± 0.80 gm
- change in organ weight, Kidney (Wistar rats [3]; 300 mg/kg): 1.6568 ± 0.110 gm
- change in organ weight, Liver (Wistar rats [3]; 300 mg/kg): 6.58 ± 0.535 gm
- change in organ weight, Spleen (Wistar rats [3]; 300 mg/kg): 0.654 ± 0.075 gm
- change in organ weight, Kidney (Wistar rats [3]; 1000 mg/kg): 1.854 ± 0.1179 gm
- change in organ weight, Liver (Wistar rats [3]; 1000 mg/kg): 6.204 ± 0.2716 gm
- change in organ weight, Spleen (Wistar rats [3]; 1000 mg/kg): 0.716 ± 0.0508 gm
- body weight course (Wistar rats [3]; 1000 mg/kg): gradual decrease in body weight
- change in body weight (Wistar rats [3]; 7th day, 300 mg/kg): 248 ± 3.391 gm
- food consumed by animals (weight) (Wistar rats [3]; 7th day, 300 mg/kg): 90.4 ± 1.288 gm
- change in body weight (Wistar rats [3]; 7th day, 1000 mg/kg): 238 ± 16.17 gm
- food consumed by animals (weight) (Wistar rats [3]; 7th day, 1000 mg/kg): 88.6 ± 1.363 gm
- change in body weight (Wistar rats [3]; 14th day, 300 mg/kg): 253 ± 8 gm
- food consumed by animals (weight) (Wistar rats [3]; 14th day, 300 mg/kg): 89.2 ± 2.009 gm
- food intake (Wistar rats [3]; [12]): significant decrease in food intake
- change in body weight (Wistar rats [3]; 14th day, 1000 mg/kg): 231 ± 15.033 gm
- food consumed by animals (weight) (Wistar rats [3]; 14th day, 1000 mg/kg): 82.4 ± 1.939 gm
- toxicity signs (Wistar rats [3]; 1000 mg/kg): toxicity signs were seen
- tremors, change in eye and skin color (Wistar rats [3]; 1000 mg/kg): tremors, change in eye and skin color was observed
- Mortality (Wistar rats [3]): Mortality was observed
- DNA fragmentation (HCT-116 cells [4]): DNA fragmentation
- Globulin (Wistar rats [5]; 300 mg/kg): 3.80 ± 0.404 g/dL
- A/G ratio (Wistar rats [5]; 300 mg/kg): 0.69 ± 0.0608
- Albumin (Wistar rats [5]; 300 mg/kg): 3.33 ± 0.437 g/dL
- Total protein (Wistar rats [5]; 300 mg/kg): 7.03 ± 0.491 g/dL
- SGPT (ALT) (Wistar rats [5]; 300 mg/kg): 47.66 ± 2.728 U/L
- ALP (Wistar rats [5]; 300 mg/kg): 307.33 ± 7.218 U/L
- SGOT (AST) (Wistar rats [5]; 300 mg/kg): 193 ± 12.74 U/L
- Globulin (Wistar rats [5]; 1000 mg/kg): 4.006 ± 0.1034 g/dL
- A/G ratio (Wistar rats [5]; 1000 mg/kg): 0.6966 ± 0.0317
- Albumin (Wistar rats [5]; 1000 mg/kg): 3.683 ± 0.261 g/dL
- Total protein (Wistar rats [5]; 1000 mg/kg): 7.40 ± 0.324 g/dL
- SGPT (ALT) (Wistar rats [5]; 1000 mg/kg): 75.33 ± 4.05 U/L
- Triglycerides (Wistar rats [5]; 1000 mg/kg): 115 ± 4.055 mg%
- ALP (Wistar rats [5]; 1000 mg/kg): 343.0 ± 10.785 U/L
- SGOT (AST) (Wistar rats [5]; 1000 mg/kg): 242 ± 3.785 U/L
- DNA fragmentation (CT-26 cells [6]): DNA fragmentation
- % migration of cell (HCT-116 cells [7]; HCT-116, 25 μM): 41.75%
- % migration of cell (HCT-116 cells [7]; HCT-116, 50 μM): 35.07%
- SOD level, spleen (Wistar rats [8]; [13]): significant reduction of SOD level
- SOD level, spleen (Wistar rats [8]; [14]): significant decrease seen in SOD level
- hemolytic activity (red blood cells (RBCs)): did not show any hemolytic activity
- Liver sections, histopathology (Wistar rats [9]; 300 mg/kg): healthy with normal hepatocytes while some sections were found to have non-uniform cell structure
- Spleen sections, histopathology (Wistar rats [9]; 300 mg/kg): diffuse white pulp and distorted lymphoid architecture
- Liver sections, histopathology (Wistar rats [9]; 1000 mg/kg): healthy with mild activation of kupffer cells indicated by circle and moderate steatosis
- Spleen sections, histopathology (Wistar rats [9]; 1000 mg/kg): diffuse white pulp and distorted lymphoid architecture
- IC50 [10]: 61.2 ± 21.2 µM
- migration percentages (CT-26 cells [11]; CT-26, 25 μM): 45.61%
- migration percentages (CT-26 cells [11]; CT-26, 50 μM): 30.62%

— article PMC11721817 (Toxicology Reports, 2024)
